Experiments:
MAGL [1] = target: T1, MAGL (Homo sapiens, UniProt Q99685); set-up: method as in earlier work; details: Table S2, literature compounds; ref (1), (6)-(12) as indicated per compound; cited from earlier work
T1 sequence (Q99685 1-303): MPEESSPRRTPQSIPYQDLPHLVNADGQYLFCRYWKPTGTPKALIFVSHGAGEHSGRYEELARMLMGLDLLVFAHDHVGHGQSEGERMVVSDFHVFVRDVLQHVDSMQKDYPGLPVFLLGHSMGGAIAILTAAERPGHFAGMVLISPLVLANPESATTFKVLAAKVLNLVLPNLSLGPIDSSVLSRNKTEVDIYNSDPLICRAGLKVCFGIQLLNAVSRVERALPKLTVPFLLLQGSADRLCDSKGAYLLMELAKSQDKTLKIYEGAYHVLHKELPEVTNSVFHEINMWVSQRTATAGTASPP

MAGL-Nluc fusion protein = assay: Competition nanoBRET assay in live HEK293 cells with probe 4a as tracer; type: cell-based; details: tracer 4a (100 nM), read-out: cellular IC50
Description: In vitro MAGL Inhibition Assay
Compounds were profiled for MAGL inhibitory activity by determining the enzymatic activity by following the hydrolysis of the natural substrate 2-arachidonoylglycerol (2-AG), resulting in arachidonic acid, which can be followed by mass spectrometry. The 2-AG assay was carried out in 384 well assay plates (PP, Greiner Cat# 784201) in a total volume of 20 µL. Compound dilutions were made in 100% DMSO (VWR Chemicals 23500.297) in a polypropylene plate in 3-fold dilution steps to give a final concentration range in the assay from 12.5 µM to 0.8 pM. […] The activity of the compounds was calculated based on the ratio of intensities [arachidonic acid / d8-arachidonic acid]. […]
A HEK293A stable cell line expressing NanoLuc_MAGL was established at Roche and assigned as HEK293A_NanoLuc_MAGL clone #43. […] The introduction of competing compounds results in a dose -dependent decrease in NanoBRET™ energy transfer, which allows quantification of the intracellular affinity of the target protein for the test compound.
HEK293A_NanoLuc_MAGL clone #43 cells were cultured in DMEM (Gibco 31966) with 10% FBS and 800 ug/ml G418. […] After 2 hours of incubation, Nanoluciferase substrates and extracellular inhibitors were added following the manufacturer's protocol (Promega, #N2520), and the NanoBRET signaling were quantified with the Paradigm (Molecular Devices).

MAGL [2] = target: T1, MAGL; assay: Competitive FP binding assay with probe 5 as tracer; details: 5 (20 nM), hMAGL (50 nM), irreversible inhibitors time-dependent
MAGL [3] = target: T1, MAGL; assay: ABPP target occupancy in patient-derived PBMCs; type: cell-based; set-up: native, human patient-derived peripheral blood monocytes (PBMCs); endogenous in cells; host or cells: human PBMCs from buffy coats
Description: minutes at RT. Subsequently, 0.5 µL MB064 (40x stock in DMSO) was added to the proteome sample, vortexed briefly, and incubated for 10 minutes at RT, after which 0.5 µL FP-Bodipy-FL (40x stock in DMSO) was added, vortexed briefly and incubated for 10 minutes at RT. The final volume was 20 - 20.5 µL (5 - 7.5% DMSO). The reaction was quenched by the addition of 7.5 µL of 4*Laemmli-buffer (final concentrations: 60 mM Tris (pH 6.8), 2% (w/v) SDS, 10% (v/v) glycerol, 1.25% (v/v) β-mercaptoethanol, 0.01% (v/v) bromophenol blue). 10 µL (14 µg protein) of the quenched reaction mixture was resolved on 10% acrylamide SDS-PAGE (180 V, 75 min). Fluorescence was measured using a Biorad ChemiDoc MP system (fluorescence channels Cy2, Cy3, Cy5). Gels were then stained using coomassie staining and imaged for protein loading control. Labeling of the respective proteins via MB064 and FP-BODIPY was visualized in two separate channels. […]
PBMCs were thawed, washed with 1 x PBS and equal amounts of cells were exposed to DMSO (D2650; Sigma-Aldrich) or MAGL inhibitor PF (PF-06795071) in DMSO for 30 min at room temperature with concentrations ranging from 1 nM to 1000 nM. […] Samples were then separated by SDS-PAGE and bands were detected ChemiDoc Imager (Bio-Rad Laboratories). […] Gels were imaged and protein bands were quantified using Image Lab software (Bio-Rad Laboratories).

O=C(O[C@H](CO)C(F)(F)F)N1C[C@@H]2C(c3ccn(-c4ccc(F)cc4)n3)[C@@H]2C1 (some centres unmarked) [PF-06795071]
IC50 (MAGL [1]): 3 nM | IC50 (MAGL-Nluc fusion protein): 1600 nM | Ki (MAGL [2]): 12.8 ± 3.9 nM | loss of MAGL activity (MAGL [3]; 1 nM): 40% | loss of MAGL activity (MAGL [3]; 10 nM): 93%
